Test system: SNU-C5/WT
Conditions: mouse, in vivo

O=c1[nH]cc(F)c(=O)[nH]1 [5FU, 5-fluorouracil]
cell proliferation of tumor cells (Ki67 fluorescence staining): not able to decrease the proliferative ability of tumor cells
tumor formation (tumor volume): does not effectively inhibit tumor formation

From US20220380477A1 (priority 2019, published 2022)
